The values that follow come from the SangsterLogP compilation.

The term logP denotes a log measure of how a compound divides between an organic and an aqueous phase.

In turn, `Cc1cc(C)c(C)c(C)c1C` showed a logP of 4.56.
Next, `Nc1cc(Cl)c(Cl)c(Cl)c1`: 3.32.
On to `Cc1cc(C)c(C)c(C)c1`, for which the logP turned out to be 4.17.
The compound `Nc1c(Cl)cccc1Cl` gave a logP of 2.71.
Next, `Cc1ccc(C)c(C)c1C`: 4.11; `Cc1cc(C)cc(C)c1`: 3.84.
`Nc1ccc(Cl)c(Cl)c1Cl`: the logP amounted to 3.33.
In turn, `Nc1c(Cl)c(Cl)c(Cl)c(Cl)c1Cl` had a lipophilicity (logP) of 4.59.
Turning to `ClC1=C(Cl)C2(Cl)C3C4CC(C5OC45)C3C1(Cl)C2(Cl)Cl` (configuration not stated), the logP came out at 5.11.
Compound `Oc1cc(Cl)c(Cl)c(Cl)c1` had a logP of 3.75.
Next, `Oc1cc(Cl)cc(Cl)c1`: 3.26; `Oc1ccc(Cl)c(Cl)c1`: 3.05.
